Like-named read-outs stand apart in the source and are kept apart here.
Experiments:
MEK1 activated ERK1 = biological target: T1, MEK1 activated ERK1 (Homo sapiens, UniProt P27361); experiment: Omnia continuous-read kinase assay for potency against MEK1 activated ERK1; type: biochemical
T1 construct: purchased Millipore (Billerica, Mass.) 14-439-K
Procedure, shortened: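 Apparent IC50 came from initial reaction slopes (RFU vs time) plotted against log inhibitor with a variable-slope fit. Reactions were started with ERK1 (4 nM final) added to 50 μM ATP, roughly at its appKM, and 10 μM Sox-conjugated ST17 peptide in 20 mM Tris pH 7.5, 5 mM MgCl2. Fluorescence was monitored every 71 seconds.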

[1] = test system: ERK1/2 phosphorylation of p90RSK in A375 cells; experiment: Detection of total and phosphor-RSK by MSD ELISA (A375); type: cell-based; settings: Homo sapiens, A-375, read-out: ERK1/ERK2 PRSK A375 EC50
Procedure, shortened: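 Electrochemiluminescent MSD ELISA: common RSK capture antibody, with pRSK Ser380 or total RSK detection antibodies plus SulfoTag secondaries. Samples were lysates of A375 cells exposed to compound for 2 h at 37° C after overnight culture in 0.1% FBS DMEM.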

T1 sequence (P27361 whole entry): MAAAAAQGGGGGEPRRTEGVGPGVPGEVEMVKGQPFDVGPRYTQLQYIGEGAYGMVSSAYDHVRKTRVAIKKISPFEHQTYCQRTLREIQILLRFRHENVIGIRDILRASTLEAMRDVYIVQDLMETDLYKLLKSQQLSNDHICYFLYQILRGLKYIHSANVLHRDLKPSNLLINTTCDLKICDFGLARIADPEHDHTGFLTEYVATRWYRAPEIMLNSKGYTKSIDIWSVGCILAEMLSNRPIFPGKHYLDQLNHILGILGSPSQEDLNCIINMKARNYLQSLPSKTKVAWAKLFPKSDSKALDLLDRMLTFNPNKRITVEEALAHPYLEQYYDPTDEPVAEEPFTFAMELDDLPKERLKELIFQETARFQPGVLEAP

Row | Structure (SMILES) | IC50 (MEK1 activated ERK1; ATP at KM, WT) [nM] | EC50 [1] [nM] | IC50 (MEK1 activated ERK1; MEK1 activated ERK1, ATP at KM, read-out: ERK1 Omnia WT ATP KM IC50) [nM]
1 | C=CC(=O)Nc1cc(C)ccc1Nc1nc(NC2CCC(=O)NC2)ncc1C(F)(F)F (racemic) [Compound I-368, Rac-N-(5-methyl-2-((2-((6-oxopiperidin-3-yl)amino)-5-(trifluoromethyl)pyrimidin-4-yl)amino)phenyl)acrylamide] | 101 to 500 | > 1000 | 
2 | C=CC(=O)Nc1cc(CN2CCN(C(C)=O)C[C@@H]2C)ccc1Nc1nc(Nc2cc(OC)ncc2C)ncc1C(F)(F)F [Compound I-421, (S)—N-(5-((4-acetyl-2-methylpiperazin-1-yl)methyl)-2-((2-((2-methoxy-5-methylpyridin-4-yl)amino)-5-(trifluoromethyl)pyrimidin-4-yl)amino)phenyl)acrylamide] | < 100 | 101 to 500 | 
3 | C=CC(=O)Nc1cc(C)ccc1Nc1nc(Nc2nc(OC)nc(OC)n2)ncc1C(F)(F)F [Compound I-371, N-(2-((2-((4,6-dimethoxy-1,3,5-triazin-2-yl)amino)-5-(trifluoromethyl)pyrimidin-4-yl)amino)-5-methylphenyl)acrylamide] | 101 to 500 | 101 to 500 | 
4 | C=CC(=O)Nc1cc(C)ccc1Nc1nc(Nc2cc(OC(C)C)ncc2C)ncc1C(F)(F)F [Compound I-369, N-(2-((2-((2-isopropoxy-5-methylpyridin-4-yl)amino)-5-(trifluoromethyl)pyrimidin-4-yl)amino)-5-methylphenyl)acrylamide] | > 1000 | > 1000 | 
5 | C=CC(=O)Nc1cc(C)ccc1Nc1nc(Nc2cc(OC)nc(OC)c2)ncc1C(F)(F)F [Compound I-96] |  | 101 to 500 | 101 to 500
6 | C=CC(=O)Nc1cc(OC(F)(F)F)ccc1Nc1nc(Nc2cc(OC)ncc2C)ncc1C(F)(F)F [Compound I-407, N-(2-((2-((2-methoxy-5-methylpyridin-4-yl)amino)-5-(trifluoromethyl)pyrimidin-4-yl)amino)-5-(trifluoromethoxy)phenyl)acrylamide] | 101 to 500 | 101 to 500 | 
7 | C=CC(=O)Nc1cc(O[C@@H](C)C(=O)N2CCN(S(C)(=O)=O)CC2)ccc1Nc1nc(Nc2cc(OC)ncc2C)ncc1C(F)(F)F [Compound I-426, (S)—N-(2-((2-((2-methoxy-5-methylpyridin-4-yl)amino)-5-(trifluoromethyl)pyrimidin-4-yl)amino)-5-((1-(4-(methylsulfonyl)piperazin-1-yl)-1-oxopropan-2-yl)oxy)phenyl)acrylamide] | 501 to 999 | 101 to 500 | 
8 | C=CC(=O)Nc1cc(OCC(N)=O)ccc1Nc1nc(Nc2cc(OC)ncc2C)ncc1C(F)(F)F [Compound I-398, N-(5-(2-amino-2-oxoethoxy)-2-((2-((2-methoxy-5-methylpyridin-4-yl)amino)-5-(trifluoromethyl)pyrimidin-4-yl)amino)phenyl)acrylamide] | < 100 | < 100 | 
9 | C=CC(=O)Nc1cc(CN2CCN(C(=O)c3cnccn3)CC2)ccc1Nc1nc(Nc2nc(OC)ncc2C)ncc1C(F)(F)F [Compound I-393, N-(2-((2-((2-methoxy-5-methylpyrimidin-4-yl)amino)-5-(trifluoromethyl)pyrimidin-4-yl)amino)-5-((4-(pyrazine-2-carbonyl)piperazin-1-yl)methyl)phenyl)acrylamide] | 501 to 999 | > 1000 | 
10 | C=CC(=O)Nc1cc(C(=O)N2CCN(S(C)(=O)=O)CC2)ccc1Nc1nc(Nc2cc(OC)ncc2C)ncc1C(F)(F)F [Compound I-401, N-(2-((2-((2-methoxy-5-methylpyridin-4-yl)amino)-5-(trifluoromethyl)pyrimidin-4-yl)amino)-5-(4-(methylsulfonyl)piperazine-1-carbonyl)phenyl)acrylamide] | 101 to 500 | 101 to 500 | 
11 | C=CC(=O)Nc1cc(C)ccc1Nc1nc(Nc2cc(OC)nnc2OC)ncc1C(F)(F)F [Compound I-372, N-(2-((2-((3,6-dimethoxypyridazin-4-yl)amino)-5-(trifluoromethyl)pyrimidin-4-yl)amino)-5-methylphenyl)acrylamide] | 501 to 999 | 101 to 500 | 
12 | C=CC(=O)Nc1cc(O[C@@H](C)C(N)=O)ccc1Nc1nc(Nc2cc(OC)ncc2C)ncc1C(F)(F)F [Compound I-412, (S)—N-(5-((1-amino-1-oxopropan-2-yl)oxy)-2-((2-((2-methoxy-5-methylpyridin-4-yl)amino)-5-(trifluoromethyl)pyrimidin-4-yl)amino)phenyl)acrylamide] | < 100 | < 100 | 
13 | C=CC(=O)Nc1cc(C)ccc1Nc1nc(Nc2cc(OCC)ncc2C)ncc1C(F)(F)F [Compound I-358, N-(2-((2-((2-ethoxy-5-methylpyridin-4-yl)amino)-5-(trifluoromethyl)pyrimidin-4-yl)amino)-5-methylphenyl)acrylamide] | 101 to 500 | 101 to 500 | 
14 | C=CC(=O)Nc1cc(CN2CCN(C(=O)c3cccnc3)CC2)ccc1Nc1nc(Nc2cc(OC)ncc2C)ncc1C(F)(F)F [Compound I-389, N-(2-((2-((2-methoxy-5-methylpyridin-4-yl)amino)-5-(trifluoromethyl)pyrimidin-4-yl)amino)-5-((4-nicotinoylpiperazin-1-yl)methyl)phenyl)acrylamide] | < 100 | < 100 | 
15 | C=CC(=O)Nc1cc(C)ccc1Nc1nc(Nc2ncc(F)c(OC)n2)ncc1C(F)(F)F [Compound I-356, N-(2-((2-((5-fluoro-4-methoxypyrimidin-2-yl)amino)-5-(trifluoromethyl)pyrimidin-4-yl)amino)-5-methylphenyl)acrylamide] | 501 to 999 | 101 to 500 | 
16 | C=CC(=O)Nc1c(Nc2nc(Nc3cc(OC)ncc3C)ncc2OC)cccc1OCc1nccs1 [Compound I-411, N-(2-((5-methoxy-2-((2-methoxy-5-methylpyridin-4-yl)amino)pyrimidin-4-yl)amino)-6-(thiazol-2-ylmethoxy)phenyl)acrylamide] | > 1000 | > 1000 | 
17 | C=CC(=O)Nc1c(Nc2nc(Nc3cc(OC)ncc3C)ncc2C(F)(F)F)ccc(C)c1F [Compound I-367, N-(2-fluoro-6-((2-((2-methoxy-5-methylpyridin-4-yl)amino)-5-(trifluoromethyl)pyrimidin-4-yl)amino)-3-methylphenyl)acrylamide] | 101 to 500 | 101 to 500 | 
18 | C=CC(=O)Nc1cc(C)ccc1Nc1nc(Nc2nc(OC)ncc2C)ncc1C(F)(F)F [Compound I-347, N-(2-((2-((2-methoxy-5-methylpyrimidin-4-yl)amino)-5-(trifluoromethyl)pyrimidin-4-yl)amino)-5-methylphenyl)acrylamide] | < 100 | 101 to 500 | 
19 | C=CC(=O)Nc1cc(CN2CCN(C)CC2)ccc1Nc1nc(Nc2nc(OC)ncc2C)ncc1C(F)(F)F [Compound I-394, N-(2-((2-((2-methoxy-5-methylpyrimidin-4-yl)amino)-5-(trifluoromethyl)pyrimidin-4-yl)amino)-5-((4-methylpiperazin-1-yl)methyl)phenyl)acrylamide] | 101 to 500 | > 1000 | 
20 | C=CC(=O)Nc1cc(C)ccc1Nc1nc(Nc2cc(-c3nc[nH]n3)ccc2C)ncc1C(F)(F)F [Compound I-373, N-(5-methyl-2-((2-((2-methyl-5-(1H-1,2,4-triazol-3-yl)phenyl)amino)-5-(trifluoromethyl)pyrimidin-4-yl)amino)phenyl)acrylamide] | > 1000 | 501 to 999 | 
21 | C=CC(=O)Nc1cc(CN2CCN(S(C)(=O)=O)CC2)ccc1Nc1nc(Nc2nc(OC)ncc2C)ncc1C(F)(F)F [Compound I-383, N-(2-((2-((2-methoxy-5-methylpyrimidin-4-yl)amino)-5-(trifluoromethyl)pyrimidin-4-yl)amino)-5-((4-(methylsulfonyl)piperazin-1-yl)methyl)phenyl)acrylamide] | 101 to 500 | > 1000 | 
22 | C=CC(=O)Nc1cc(O[C@@H](C)C(=O)N2CCN(C(C)=O)CC2)ccc1Nc1nc(Nc2cc(OC)ncc2C)ncc1C(F)(F)F [Compound I-425, (S)—N-(5-((1-(4-acetylpiperazin-1-yl)-1-oxopropan-2-yl)oxy)-2-((2-((2-methoxy-5-methylpyridin-4-yl)amino)-5-(trifluoromethyl)pyrimidin-4-yl)amino)phenyl)acrylamide] | 101 to 500 | 501 to 999 | 
23 | C=CC(=O)Nc1cc(C)ccc1Nc1nc(Nc2cc(C(=O)NC)nn2C)ncc1C(F)(F)F [Compound I-424, 5-((4-((2-acrylamido-4-methylphenyl)amino)-5-(trifluoromethyl)pyrimidin-2-yl)amino)-N,1-dimethyl-1H-pyrazole-3-carboxamide] | > 1000 | 501 to 999 | 
24 | C=CC(=O)Nc1cc(CN2CCN(C(=O)c3cccnc3)CC2)ccc1Nc1nc(Nc2nc(OC)ncc2C)ncc1C(F)(F)F [Compound I-392, N-(2-((2-((2-methoxy-5-methylpyrimidin-4-yl)amino)-5-(trifluoromethyl)pyrimidin-4-yl)amino)-5-((4-nicotinoylpiperazin-1-yl)methyl)phenyl)acrylamide] | 101 to 500 | > 1000 | 
25 | C=CC(=O)Nc1cc(CCC(N)=O)ccc1Nc1nc(Nc2cc(OC)ncc2C)ncc1C(F)(F)F [Compound I-400, N-(5-(3-amino-3-oxopropyl)-2-((2-((2-methoxy-5-methylpyridin-4-yl)amino)-5-(trifluoromethyl)pyrimidin-4-yl)amino)phenyl)acrylamide] | < 100 | < 100 | 
26 | C=CC(=O)Nc1cc(C)ccc1Nc1nc(Nc2cc(OCCOC)ncc2C)ncc1C(F)(F)F [Compound I-359, N-(2-((2-((2-(2-methoxyethoxy)-5-methylpyridin-4-yl)amino)-5-(trifluoromethyl)pyrimidin-4-yl)amino)-5-methylphenyl)acrylamide] | 101 to 500 | 101 to 500 | 

From patent US9561228B2 (Celgene Avilomics Research, Inc., priority 2013, dated 2017)
